In BindingDB's records for doi:10.1016/s0014-2999(00)00916-x (The Royal Danish School of Pharmacy, 2001):

How the values were obtained:
Glutamate receptor 3 = Glutamate receptor 3 (Rattus norvegicus, UniProt P19492)
[1] = biological target: Glutamate receptor ionotropic, NMDA 1 (Rattus norvegicus, UniProt P35439)
[2] = biological target: Glutamate receptor ionotropic, kainate 1 (Rattus norvegicus, UniProt P22756)
Chain of Glutamate receptor ionotropic, kainate 1 (P22756 whole entry): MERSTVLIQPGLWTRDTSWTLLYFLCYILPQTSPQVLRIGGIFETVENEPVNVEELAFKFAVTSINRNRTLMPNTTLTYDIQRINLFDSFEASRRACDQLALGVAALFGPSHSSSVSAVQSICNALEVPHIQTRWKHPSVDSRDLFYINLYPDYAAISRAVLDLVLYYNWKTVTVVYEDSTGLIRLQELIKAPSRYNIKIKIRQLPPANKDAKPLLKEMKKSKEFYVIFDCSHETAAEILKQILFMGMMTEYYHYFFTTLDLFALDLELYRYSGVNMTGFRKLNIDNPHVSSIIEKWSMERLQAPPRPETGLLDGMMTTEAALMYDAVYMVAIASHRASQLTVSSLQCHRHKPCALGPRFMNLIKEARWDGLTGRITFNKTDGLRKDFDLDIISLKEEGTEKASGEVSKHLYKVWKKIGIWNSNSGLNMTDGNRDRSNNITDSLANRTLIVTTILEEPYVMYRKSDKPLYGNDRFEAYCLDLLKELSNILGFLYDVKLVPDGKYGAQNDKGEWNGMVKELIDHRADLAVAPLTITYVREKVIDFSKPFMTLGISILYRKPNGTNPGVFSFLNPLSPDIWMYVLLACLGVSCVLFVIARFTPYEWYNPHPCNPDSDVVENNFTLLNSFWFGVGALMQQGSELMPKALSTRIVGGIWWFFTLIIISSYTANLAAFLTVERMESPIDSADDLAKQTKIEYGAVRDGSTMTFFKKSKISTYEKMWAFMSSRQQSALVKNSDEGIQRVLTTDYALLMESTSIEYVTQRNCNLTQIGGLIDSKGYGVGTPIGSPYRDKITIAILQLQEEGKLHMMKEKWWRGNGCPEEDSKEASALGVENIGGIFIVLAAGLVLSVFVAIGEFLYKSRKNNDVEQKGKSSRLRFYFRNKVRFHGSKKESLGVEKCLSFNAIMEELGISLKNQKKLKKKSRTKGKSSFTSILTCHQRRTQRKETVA

Chain of Glutamate receptor 3 (P19492 whole entry): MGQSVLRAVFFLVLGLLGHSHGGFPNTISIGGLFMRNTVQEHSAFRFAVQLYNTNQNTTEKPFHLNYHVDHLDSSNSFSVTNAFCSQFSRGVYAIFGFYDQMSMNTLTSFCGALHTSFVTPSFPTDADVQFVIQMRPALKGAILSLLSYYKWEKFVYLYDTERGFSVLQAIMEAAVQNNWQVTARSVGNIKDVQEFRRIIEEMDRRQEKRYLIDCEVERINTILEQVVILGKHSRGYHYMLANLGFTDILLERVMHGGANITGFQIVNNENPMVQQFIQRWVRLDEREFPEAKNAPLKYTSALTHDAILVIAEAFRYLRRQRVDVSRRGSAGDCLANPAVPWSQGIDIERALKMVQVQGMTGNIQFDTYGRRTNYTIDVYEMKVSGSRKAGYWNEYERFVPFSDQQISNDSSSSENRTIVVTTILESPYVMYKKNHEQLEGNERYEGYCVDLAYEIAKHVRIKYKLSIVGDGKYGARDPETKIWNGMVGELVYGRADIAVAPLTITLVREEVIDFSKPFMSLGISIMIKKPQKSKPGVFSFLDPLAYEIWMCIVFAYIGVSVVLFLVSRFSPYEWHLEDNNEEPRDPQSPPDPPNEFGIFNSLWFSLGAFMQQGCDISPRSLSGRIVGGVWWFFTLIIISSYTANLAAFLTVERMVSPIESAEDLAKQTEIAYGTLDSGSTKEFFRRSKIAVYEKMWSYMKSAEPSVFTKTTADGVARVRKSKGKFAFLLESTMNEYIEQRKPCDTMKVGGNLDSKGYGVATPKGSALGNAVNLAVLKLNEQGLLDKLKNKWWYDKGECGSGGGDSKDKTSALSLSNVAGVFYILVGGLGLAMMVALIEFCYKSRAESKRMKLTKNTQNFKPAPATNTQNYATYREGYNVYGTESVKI

| Compound | Ki (Glutamate receptor 3) [µM] | Ki [1] [µM] | Ki [2] [µM] |
| --- | --- | --- | --- |
| CC(C)(C)c1o[nH]c(=O)c1C[C@H](N)C(=O)O [ATPA-R] | > 10 |  |  |
| CC(C)(C)c1onc(O)c1CC(N)C(=O)O (stereo not given) [NSC_2253] | > 10 |  |  |
| CC(C)(C)c1o[nH]c(=O)c1C[C@@H](N)C(=O)O [ATPA-S] | 1.8 |  |  |
| CC(C)(C)c1snc(O)c1CC(N)C(=O)O (stereo not given) [Thio-ATPA-S] |  | > 10 | > 10 |
